Holding throughout (assay type): biochemical
The target in one assay is T1, bGGPTase-I (Bos taurus, UniProt P29702+Q5EAD5).
T1 construct: Cerebral lobes from bovine brains were homogenized in lysis buffer; from tissue; host or cells: bovine brain (cerebral lobes)
Put plainly: In vitro inhibition of geranylgeranyl protein transferase type I purified from bovine brain (transferase assay). Conditions: 500 nM Ras-CAIL, 100 nM geranylgeranyl diphosphate, 30 °C. Here is the method: Purification of isoprenyl-protein transferases. All purification steps were performed at 4 ° C. Cerebral lobes from bovine brains were homogenized in lysis buffer containing 50 mM Tris-Cl, pH 8.0, 1 mM EGTA, 1 mM MgCl2, 5 mM dithiothreitol, 10 μg/mL aprotinin, 0.5 mM phenylmethyl sulfonyl fluoride (PMSF), 2 μg/mL antipain and 2 μg/mL leupeptin (M.D. Schaber et al. J. Biol. Chem., 265:14701 (1990)). Cellular debris and membranes were removed by centrifugation (10 000 g for 20 rain followed by 100 000 g for 30 minutes). The supematant was loaded directly onto a column (30 cm × 20 cm^2) of DEAE-Sephacel that had been equilibrated with lysis buffer. The column was washed with the same buffer and proteins were eluted with a linear gradient of NaCl (0-500 mM, 1 L+L) in the same buffer. Fractions (20 mL) were collected and those containing different transferase activities were pooled separately. This procedure resolved FTase and GGPTase-II from GGPTase-I. Each pool was then applied to an ω-Aminooctyl agarose colurctn (30 cm×4.9 cm^2) and eluted with a linear gradient of NaCl (0-500 mM, 500 mL+500 mL) in lysis buffer. Fractions containing both FTase and GGPTase-II were pooled. The GGPTase-I (termed "bGGPTase-I") so obtained was utilized in the assay described below.
Molecular biological manipulations. To construct the C-terminus CAAX box routants, pUC-[L68]RAS1(term.) was digested with the restriction enzymes HincII and NarI to create a vector into which oligonucleotides containing new C-terminal sequences could be ligated. Except where indicated, the amino acids preceding the CAAX sequence are SLK. […]
Transferase Assays. […] Filters were washed four times with 2 mL aliquots of 100% ethanol, mixed with scintillation fluid (10 mL) and then counted in a Beckman LS3801 scintillation counter.
(§1) For inhibition studies, assays were run as described above, except inhibitors were prepared as concentrated solutions in 100% dimethyl sulfoxide and then diluted 20-fold into the enzyme assay mixture. IC50 values were determined with both transferase substrates near KM concentrations. […]

The target of another assay is T2, hGGPTase-I (Homo sapiens, UniProt P49354+P53609).
T2 construct: made in house; host or cells: E. coli BL21(DE3), strain RD578
The assay can be described thus: In vitro inhibition of recombinant human geranylgeranyl protein transferase type I (transferase assay). The following applies: 500 nM Ras-CAIL, 100 nM geranylgeranyl diphosphate, 30 °C. The source says: Cloning of human GGPTase-I βGGI subunit cDNAs. Approximately 1 nmol of GGPTase-I-I purified from bovine brain as described in Moomaw, J.F. and ,Casey, P.J. (1992) J Biol Chem 267:17438-17443, was subjected to electrophoresis on a 11% SDS-polyacrylamide gel and transferred to nitrocellulose paper. The nitrocellulose paper was then stained with Poneeau S to localize the subunit polypeptides. The 48 kDa and 43 kDa bands were excised from the nitroeellulose and sent to Harvard Microchem (Cambridge, Mass.) for processing. High-confidence sequences of five βGGI subunit peptides were obtained. The sequences of these peptides are listed below:
Two degenerate oligonucleotide primers [GCTC-GGATCC-C-(A/G)AA-(A/G)TT-NGT-(A/G)TA-(T/C)TG-(A/G)A (SEQ.ID.NO.:6) and GTCGG-GAATTC-ACN-AT(A/C/T)-GCN-TT(C/T)-TT(C/T)-GC (SEQ.ID.NO.:7)] were synthesized based on portions of two βGGI subunit peptide sequences [IFQYTNFEK (SEQ.ID.NO.:3) (antisense oligo) and TIAFFLSGLDMLD (SEQ.ID.NO.:I) respectively]. The polymerase chain reaction (PCR) (Saiki, R. K., Gelfand, D. H., Stoffel, S., Scharf, S. J., Higuchi, R., Horn, G. T., Mullis, K. B. and Erlich, H. A. (1988) Science 239:[…]) was performed using DNA obtained from a bovine brain eDNA library as template (Vogel, U.S., Dixon, R. A. F., Schaber, M.D., Diehl, R. E., Marshall, M. S., Scoinick, E. M., Sigal, I. S. and Gibbs, J. B. (1988) Nature 335:90-93). […]

For the next assay, the target named is T3, FPTase (Homo sapiens, UniProt P49354+P49356).
T3 construct: made in house
The assay can be described thus: In vitro inhibition of recombinant farnesyl-protein transferase (transferase assay). Conditions: 650 nM Ras-CVLS, 100 nM farnesyl diphosphate, 30 °C.
Excerpt: Molecular biological manipulations. To construct the C-terminus CAAX box routants, pUC-[L68]RAS1(term.) was digested with the restriction enzymes HincII and NarI to create a vector into which oligonucleotides containing new C-terminal sequences could be ligated. Except where indicated, the amino acids preceding the CAAX sequence are SLK. To simplify the nomenclature, [L68]RAS1 (term.)SLKCVLS (J.B. Gibbs et al., Proc. Natl. Acad Sci. U.S.A., 86:6630 (1989)) will be referred to as Ras-CVLS, and this convention is used for all other mutants. The substrate for Frase was Ras-CVLS. The substrate for GGPTase-I was Ras-CAIL.
Transferase Assays. Isoprenyl-protein transferase activity assays were carried out at 30 ° C. unless noted otherwise. A typical reaction contained (in a final volume of 50 μL): [^3 H]farnesyl diphosphate or [^3 H]geranylgeranyl diphosphate, Ras protein, 50 mM HEPES, pH 7.5, 5 mM MgCl2, 5 mM dithiothreitol and isoprenyl-protein transferase. The FPTase employed in the assay was prepared by recombinant expression as described in Omer, C. A., Kral, A. M., Diehl, R. E., Prendergast, G. C., Powers, S., Allen, C. M., Gibbs, J. B. and Kohl, N. E. (1993) Biochemistry 32:5167-5176. After thermally pre-equilibrating the assay mixture in the absence of enzyme, reactions were initiated by the addition of isoprenyl-protein transferase and stopped at timed intervals (typically 15 min) by the addition of 1M HCl in ethanol (1 mL). The quenched reactions were allowed to stand for 15 m (to complete the precipitation process). After adding 2 mL of 100% ethanol, the reactions were vacuum-filtered through Whatman GF/C filters. Filters were washed four times with 2 mL aliquots of 100% ethanol, mixed with scintillation fluid (10 mL) and then counted in a Beckman LS3801 scintillation counter.
as §1

Three compounds from patent US5470832A, “Inhibitors of geranylgeranyl-protein transferase” (Merck & Co., Inc., priority 1994, dated 1995) can be followed below.

A word on the IC50: it is the concentration that gives 50% inhibition.

In the case of `CC[C@H](C)[C@H](NC(=O)[C@@H](NC[C@@H](N)CS)C(C)C)C(=O)N[C@@H](CC(C)C)C(=O)O` [N-(2(R)-amino-3-mercaptopropyl)-valyl-isoleucyl-leucine], the IC50 against bGGPTase-I was 1.9 nM; on hGGPTase-I it was 23 nM; at FPTase, 800 nM.

Turning to `CC[C@H](C)[C@@H](CO[C@H](C(=O)N[C@@H](CC(C)C)C(=O)O)C(C)C)NC[C@@H](N)CS` [N-[2(S)-(2(S)-(2(R )-amino-3-mercaptopropylamino)-3(S)-methylpentyloxy)-3-methylbutanoyl]-leucine], the IC50 against bGGPTase-I worked out at 37 nM; at FPTase, 450 nM.

With `CC(C)C[C@H](NC(=O)[C@@H](/C=C/[C@@H](NC[C@@H](N)CS)C(C)C)C(C)C)C(=O)O` [5(S)-[2(R)-amino-3-mercaptopropylamino]-6-methyl(R)-i-propyl-3,4-E-heptenoyl-leucine], the IC50 against bGGPTase-I was determined as 21 nM; on FPTase it was 70 nM.
